Assay [1] concerns the target T1, Endothelial lipase (Mus musculus, UniProt Q9WVG5).
T1 sequence (Q9WVG5 whole entry): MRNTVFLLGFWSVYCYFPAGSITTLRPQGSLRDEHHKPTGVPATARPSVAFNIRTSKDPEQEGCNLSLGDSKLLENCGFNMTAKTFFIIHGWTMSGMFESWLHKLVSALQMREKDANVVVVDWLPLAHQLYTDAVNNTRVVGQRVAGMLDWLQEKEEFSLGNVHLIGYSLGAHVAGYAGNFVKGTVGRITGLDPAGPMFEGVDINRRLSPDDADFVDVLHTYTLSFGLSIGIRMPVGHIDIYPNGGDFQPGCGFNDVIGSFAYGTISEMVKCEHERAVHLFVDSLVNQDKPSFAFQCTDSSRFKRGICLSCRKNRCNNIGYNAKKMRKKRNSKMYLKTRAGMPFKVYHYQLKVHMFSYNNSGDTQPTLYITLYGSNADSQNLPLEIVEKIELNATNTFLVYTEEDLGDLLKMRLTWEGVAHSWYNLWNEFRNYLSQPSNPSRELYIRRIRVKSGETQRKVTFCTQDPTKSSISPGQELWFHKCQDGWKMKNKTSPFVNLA
In words: Inhibition of mouse endothelial lipase using PLAi as substrate measured for 30 mins by cell-based fluorescence assay.

Assay [2] addresses T2, Endothelial lipase (Homo sapiens, UniProt Q9Y5X9).
T2 sequence (Q9Y5X9 whole entry): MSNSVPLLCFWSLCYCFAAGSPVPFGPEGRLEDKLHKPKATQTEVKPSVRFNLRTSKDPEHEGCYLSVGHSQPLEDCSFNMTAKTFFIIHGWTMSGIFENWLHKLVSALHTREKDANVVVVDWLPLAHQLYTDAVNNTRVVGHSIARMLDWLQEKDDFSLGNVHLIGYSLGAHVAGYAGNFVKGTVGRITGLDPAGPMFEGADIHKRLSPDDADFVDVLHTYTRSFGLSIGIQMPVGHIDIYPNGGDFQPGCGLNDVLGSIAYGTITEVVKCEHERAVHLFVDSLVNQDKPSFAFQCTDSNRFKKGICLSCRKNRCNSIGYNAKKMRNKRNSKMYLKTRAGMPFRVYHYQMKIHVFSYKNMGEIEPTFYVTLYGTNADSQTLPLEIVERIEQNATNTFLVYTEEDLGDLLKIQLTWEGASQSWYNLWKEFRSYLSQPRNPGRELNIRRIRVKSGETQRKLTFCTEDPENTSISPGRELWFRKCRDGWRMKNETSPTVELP
Kind of assay: Inhibition of human endothelial lipase using PLAi as substrate measured for 30 mins by cell-based fluorescence assay.

The term IC50 denotes the midpoint of a concentration-inhibition curve. Low readings indicate greater potency, high ones weaker potency.

Turning to `FC(F)(F)c1c(CCCc2ccccc2)n2c3c(cccc13)SCC2`, the IC50 in assay [1] and in assay [2] was 33300 nM in each case.

On to `COc1cc2c3c(c1)c(C(F)(F)F)c(CCc1ccccc1)n3CCC2`, for which the IC50 in assay [1] is 17 nM; in assay [2] it was 14 nM.

Regarding `Nc1cc2c3c(c1)c(C(F)(F)F)c(CCCc1ccccc1)n3CCC2`, the IC50 in assay [1] and in assay [2] was 4 nM in each case.

These data come from ChEMBL document CHEMBL3091422, “Endothelial lipase inhibitors for the treatment of atherosclerosis and cardiovascular disorders” (ACS Med Chem Lett, 2013).
